Test results taken from US20260262643A1, “HERBICIDAL BENZOXAZINES” (FMC CORPORATION, priority 2022, published 2026).

Tests used:
[1] = tested on: pigweed, palmer; assay: Test C postemergence; assay type: in vivo, Amaranthus palmeri; details: 10 days
Summary of the method: (§1)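 Seeds in loam–sand blend received preemergence directed soil spray of test chemicals in non-phytotoxic solvent with surfactant; postemergence treatment was applied at one- to two-leaf stage (2–10 cm). After 10 days in greenhouse, injury rated visually versus untreated controls, 0 (no effect) to 100 (complete control).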

[2] = tested on: green foxtail; assay: Test C postemergence; assay type: in vivo, Setaria viridis; details: 10 days
Summary of the method: as §1

[3] = tested on: horseweed; assay: Test C postemergence; assay type: in vivo, Erigeron canadensis; details: 10 days
Summary of the method: as §1

[4] = tested on: ragweed; assay: Test C postemergence; assay type: in vivo, Ambrosia artemisiifolia; details: 10 days
Summary of the method: as §1

[5] = tested on: green foxtail; assay: Test C preemergence; assay type: in vivo, Setaria viridis; details: 0 to 100 scale (0 no effect, 100 complete control); for Foxtail, Green plant response rating: preemergence
Summary of the method: as §1

[6] = tested on: wheat; assay: Test C postemergence; assay type: in vivo, Triticum aestivum; details: 10 days
Summary of the method: as §1

[7] = tested on: galium; assay: Test C postemergence; assay type: in vivo, Galium aparine; details: 10 days
Summary of the method: as §1

[8] = tested on: blackgrass; assay: Test C postemergence; assay type: in vivo, Alopecurus myosuroides; details: 10 days
Summary of the method: as §1

[9] = tested on: soybean; assay: Test C preemergence; assay type: in vivo, Glycine max; details: 0 to 100 scale (0 no effect, 100 complete control); for Soybean plant response rating: preemergence
Summary of the method: as §1

[10] = tested on: kochia; assay: Test C postemergence; assay type: in vivo, Bassia scoparia; details: 10 days
Summary of the method: as §1

[11] = tested on: oat, wild; assay: Test C preemergence; assay type: in vivo, Avena fatua; details: 0 to 100 scale (0 no effect, 100 complete control); for Oat, Wild plant response rating: preemergence
Summary of the method: as §1

[12] = tested on: ryegrass, Italian; assay: Test C preemergence; assay type: in vivo, Lolium multiflorum; details: 0 to 100 scale (0 no effect, 100 complete control); for Ryegrass, Italian plant response rating: preemergence
Summary of the method: as §1

[13] = tested on: barnyardgrass; assay: Test C preemergence; assay type: in vivo, Echinochloa crusgalli; details: 0 to 100 scale (0 no effect, 100 complete control); for Plant response rating, Barnyardgrass: Preemergence, 500 g ai/ha, visual rating after 10 days; for Barnyardgrass plant response rating: Test C, preemergence, 125 g ai/ha
Summary of the method: as §1

[14] = tested on: corn; assay: Test C postemergence; assay type: in vivo, Zea mays; details: 10 days
Summary of the method: as §1

[15] = tested on: sedge, umbrella; assay: Test D flooded paddy test; assay type: in vivo, Cyperus difformis; details: 250 g ai/ha, applied to paddy water, visual rating after 13 to 14 days, scale 0 to 100 (0 no effect, 100 complete control)
Summary of the method: (§2)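 Rating scale 0–100 (0 no effect, 100 complete control), visual, versus controls. Readout at 13–14 days after in-water application to 2-leaf plants in pots flooded 3 cm deep.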

[16] = tested on: blackgrass; assay: Test C preemergence; assay type: in vivo, Alopecurus myosuroides; details: 0 to 100 scale (0 no effect, 100 complete control); for Plant response rating, Blackgrass: Preemergence, 500 g ai/ha, visual rating after 10 days; for Blackgrass plant response rating: Test C, preemergence, 125 g ai/ha
Summary of the method: as §1

[17] = tested on: ryegrass, Italian; assay: Test C postemergence; assay type: in vivo, Lolium multiflorum; details: 10 days
Summary of the method: as §1

[18] = tested on: ragweed; assay: Test C preemergence; assay type: in vivo, Ambrosia artemisiifolia; details: 0 to 100 scale (0 no effect, 100 complete control); for Ragweed plant response rating: preemergence
Summary of the method: as §1

[19] = tested on: barnyardgrass; assay: Test D flooded paddy test; assay type: in vivo, Echinochloa crus-galli; details: 250 g ai/ha, applied to paddy water, visual rating after 13 to 14 days, scale 0 to 100 (0 no effect, 100 complete control)
Summary of the method: as §2

[20] = tested on: pigweed, palmer; assay: Test C preemergence; assay type: in vivo, Amaranthus palmeri; details: 0 to 100 scale (0 no effect, 100 complete control); for Pigweed, Palmer plant response rating: preemergence
Summary of the method: as §1

[21] = tested on: ducksalad; assay: Test D flooded paddy test; assay type: in vivo, Heteranthera limosa; details: 250 g ai/ha, applied to paddy water, visual rating after 13 to 14 days, scale 0 to 100 (0 no effect, 100 complete control)
Summary of the method: as §2

[22] = tested on: wheat; assay: Test C preemergence; assay type: in vivo, Triticum aestivum; details: 0 to 100 scale (0 no effect, 100 complete control); for Wheat plant response rating: preemergence
Summary of the method: as §1

[23] = tested on: oat, wild; assay: Test C postemergence; assay type: in vivo, Avena fatua; details: 10 days
Summary of the method: as §1

[24] = tested on: kochia; assay: Test C preemergence; assay type: in vivo, Bassia scoparia; details: 0 to 100 scale (0 no effect, 100 complete control); for Kochia plant response rating: preemergence
Summary of the method: as §1

[25] = tested on: corn; assay: Test C preemergence; assay type: in vivo, Zea mays; details: 0 to 100 scale (0 no effect, 100 complete control); for Corn plant response rating: preemergence
Summary of the method: as §1

[26] = tested on: soybean; assay: Test C postemergence; assay type: in vivo, Glycine max; details: 10 days
Summary of the method: as §1

[27] = tested on: barnyardgrass; assay: Test C postemergence; assay type: in vivo, Echinochloa crusgalli; details: 10 days
Summary of the method: as §1

[28] = tested on: rice; assay: Test D flooded paddy test; assay type: in vivo, Oryza sativa; details: 250 g ai/ha, applied to paddy water, visual rating after 13 to 14 days, scale 0 to 100 (0 no effect, 100 complete control)
Summary of the method: as §2

[29] = 125 g ai/ha, postemergence, 0 to 100 scale, 0 no effect, 100 complete control
[30] = Postemergence, 500 g ai/ha, visual 0 to 100 scale (0 no effect, 100 complete control)
[31] = Preemergence, 500 g ai/ha, visual rating after 10 days

Cc1cc(-n2cnc(C(C)C)n2)cc(C(=O)N2C[C@H](C)Oc3c(Cl)cccc32)c1C [Compound 259]
Plant response rating, Pigweed, Palmer [1, 29]: 90
Plant response rating, Pigweed, Palmer [1, 30]: 90
Plant response rating, Foxtail, Green [2, 29]: 40
Plant response rating, Foxtail, Green [2, 30]: 90
Plant response rating, Horseweed [3, 29]: 0
Plant response rating, Horseweed [3, 30]: 0
Plant response rating, Ragweed [4, 29]: 20
Plant response rating, Ragweed [4, 30]: 50
Plant response rating, Foxtail, Green [5, 31]: 100
Foxtail, Green plant response rating ([5]; Test C, 125 g ai/ha): 100
Plant response rating, Wheat [6, 29]: 20
Plant response rating, Wheat [6, 30]: 20
Plant response rating, Galium [7, 29]: 100
Plant response rating, Galium [7, 30]: 100
Plant response rating, Blackgrass [8, 29]: 70
Plant response rating, Blackgrass [8, 30]: 80
Plant response rating, Soybean [9, 31]: 100
Soybean plant response rating ([9]; Test C, 125 g ai/ha): 20
Plant response rating, Kochia [10, 29]: 70
Plant response rating, Kochia [10, 30]: 80
Plant response rating, Oat, Wild [11, 31]: 90
Oat, Wild plant response rating ([11]; Test C, 125 g ai/ha): 60
Plant response rating, Ryegrass, Italian [12, 31]: 100
Ryegrass, Italian plant response rating ([12]; Test C, 125 g ai/ha): 90
Plant response rating, Barnyardgrass [13]: 90
Barnyardgrass plant response rating [13]: 30
Plant response rating, Corn [14, 29]: 10
Plant response rating, Corn [14, 30]: 30
Plant response rating, Sedge, Umbrella (Flood) [15]: 0
Plant response rating, Blackgrass [16]: 70
Blackgrass plant response rating [16]: 50
Plant response rating, Ryegrass, Italian [17, 29]: 30
Plant response rating, Ryegrass, Italian [17, 30]: 50
Plant response rating, Ragweed [18, 31]: 0
Ragweed plant response rating ([18]; Test C, 125 g ai/ha): 30
Plant response rating, Barnyardgrass (Flood) [19]: 0
Plant response rating, Pigweed, Palmer [20, 31]: 100
Pigweed, Palmer plant response rating ([20]; Test C, 125 g ai/ha): 100
Plant response rating, Ducksalad (Flood) [21]: 0
Plant response rating, Wheat [22, 31]: 90
Wheat plant response rating ([22]; Test C, 125 g ai/ha): 50
Plant response rating, Oat, Wild [23, 29]: 30
Plant response rating, Oat, Wild [23, 30]: 30
Plant response rating, Kochia [24, 31]: 100
Kochia plant response rating ([24]; Test C, 125 g ai/ha): 90
Plant response rating, Corn [25, 31]: 30
Corn plant response rating ([25]; Test C, 125 g ai/ha): 30
Plant response rating, Soybean [26, 29]: 100
Plant response rating, Soybean [26, 30]: 100
Plant response rating, Barnyardgrass [27, 29]: 20
Plant response rating, Barnyardgrass [27, 30]: 70
Plant response rating, Rice (Flood) [28]: 0

CCc1ccc(-n2cnc(C(C)(C)O)n2)cc1C(=O)N1C[C@H](C)Oc2c(C)cccc21 [Compound 279]
Plant response rating, Pigweed, Palmer [1, 29]: 70
Plant response rating, Foxtail, Green [2, 29]: 90
Plant response rating, Foxtail, Green [2, 30]: 90
Plant response rating, Horseweed [3, 29]: 0
Plant response rating, Horseweed [3, 30]: 20
Plant response rating, Ragweed [4, 29]: 50
Foxtail, Green plant response rating ([5]; 500 g ai/ha): 100
Foxtail, Green plant response rating ([5]; Test C, 125 g ai/ha): 100
Plant response rating, Wheat [6, 29]: 80
Plant response rating, Galium [7, 29]: 100
Plant response rating, Galium [7, 30]: 100
Plant response rating, Blackgrass [8, 29]: 80
Plant response rating, Blackgrass [8, 30]: 90
Soybean plant response rating ([9]; 500 g ai/ha): 100
Soybean plant response rating ([9]; Test C, 125 g ai/ha): 90
Plant response rating, Kochia [10, 29]: 20
Oat, Wild plant response rating ([11]; 500 g ai/ha): 90
Oat, Wild plant response rating ([11]; Test C, 125 g ai/ha): 80
Ryegrass, Italian plant response rating ([12]; 500 g ai/ha): 90
Ryegrass, Italian plant response rating ([12]; Test C, 125 g ai/ha): 90
Plant response rating, Barnyardgrass [13]: 100
Barnyardgrass plant response rating [13]: 90
Plant response rating, Corn [14, 29]: 90
Plant response rating, Corn [14, 30]: 90
Plant response rating, Sedge, Umbrella (Flood) [15]: 100
Plant response rating, Blackgrass [16]: 90
Blackgrass plant response rating [16]: 70
Plant response rating, Ryegrass, Italian [17, 29]: 90
Ragweed plant response rating ([18]; 500 g ai/ha): 90
Ragweed plant response rating ([18]; Test C, 125 g ai/ha): 70
Plant response rating, Barnyardgrass (Flood) [19]: 60
Pigweed, Palmer plant response rating ([20]; 500 g ai/ha): 100
Pigweed, Palmer plant response rating ([20]; Test C, 125 g ai/ha): 100
Plant response rating, Ducksalad (Flood) [21]: 100
Wheat plant response rating ([22]; 500 g ai/ha): 90
Wheat plant response rating ([22]; Test C, 125 g ai/ha): 60
Plant response rating, Oat, Wild [23, 29]: 80
Kochia plant response rating ([24]; 500 g ai/ha): 90
Kochia plant response rating ([24]; Test C, 125 g ai/ha): 70
Corn plant response rating ([25]; 500 g ai/ha): 80
Corn plant response rating ([25]; Test C, 125 g ai/ha): 50
Plant response rating, Soybean [26, 29]: 100
Plant response rating, Barnyardgrass [27, 29]: 90
Plant response rating, Barnyardgrass [27, 30]: 100
Plant response rating, Rice (Flood) [28]: 35
